Results taken from article PMC13316043, “Structural basis of NSD2 degradation via targeted recruitment of SCF-FBXO22” (Nature Communications, 2026).
Like-named read-outs stand apart in the source and are kept apart here.

Experiments:
[1] = molecular target: T1, His-tagged NSD2 PWWP1 (Homo sapiens, UniProt O96028); test: TR-FRET cooperativity (competition) assay: displacement of biotinylated NSD2 ligand UNC7096; type: binding
T1 sequence (O96028 211-350): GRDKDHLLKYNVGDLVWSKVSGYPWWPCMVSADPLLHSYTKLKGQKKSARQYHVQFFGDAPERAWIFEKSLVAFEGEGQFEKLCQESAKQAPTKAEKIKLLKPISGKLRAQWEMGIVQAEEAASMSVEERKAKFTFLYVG
Description: Because of the direct interactions observed between FBXO22 and NSD2, we hypothesized that some degree of cooperative binding could facilitate complex stabilization. Therefore, we developed a TR-FRET assay to monitor the interaction between his-tagged NSD2 and a biotinylated NSD2 ligand, UNC7096, that is missing the modality for FBXO22-recruitment (Supplementary Fig. 3D)[20]. Given the positive FRET signal observed when both NSD2 PWWP1 and UNC7096 are present, we used this setup to evaluate the displacement of UNC7096 by UNC10088 in the presence or absence of the FBXO22 FIST domain (Supplementary Fig. 3D). […] Importantly, this FBXO22-dependent enhancement of NSD2 antagonism by UNC10088 was absent when C326 was substituted for alanine (Supplementary Fig. 3F). Taken together, the SCF^FBXO22-NSD2 PWWP1 structure both confirms prior results and provides additional insight into the surfaces that contribute to a cooperative interaction between NSD2 and FBXO22 to promote potent NSD2 polyubiquitination and degradation.
The TR-FRET assay was adapted to assess cooperativity from the following workflows previously reported[39],[40]. Assays were performed in white, low-volume, flat-bottom, nonbinding 384-well microplates (Greiner, Catalog No. 784904) with a final assay volume of 10 μL per well. The assay buffer contained 20 mM Tris–HCl (pH 7.5) and 150mM NaCl, 0.05% Tween-20 (v/v), 2mM DTT, and 1% DMSO (v/v). LANCE Europium (Eu)-W8044 Streptavidin conjugate (2 nM) and LANCE Ultra ULight-anti6x-His labeled antibodies (10 nM) were used as donor and acceptor fluorophores associated with the tracer ligand and protein, respectively. Final assay concentrations of 63 nM His-tagged NSD2 PWWP1 and 31 nM of UNC7096 (a biotinylated version of the NSD2 ligand) as a tracer ligand were used for compound testing. UNC8732, UNC10088, and UNC10415667 were diluted in a 10-point, 3-fold serial dilution, and indicated compounds were pre-incubated with FBXO22 FIST for 30 min. A master mix of NSD2 PWWP1, UNC7096, and TR-FRET reagents was made prior to its addition to the compounds and/or FBXO22 FIST. The plates were sealed with metallic covers, mixed gently for 1 min, and incubated in the dark for 1 h. After 1 h, the plate was read on an EnVision 2103 plate reader with a 320 nm excitation filter and 615 nm/ 665 nm emission filters simultaneously with a dual mirror D400/D630 and a 100 μs delay. […] Raw TR-FRET signals were normalized to a high inhibition control (10 μM of UNC10088) and negative control (1% DMSO). The normalized TR-FRET signals were plotted against the compound concentrations. […] Ki values were calculated from the IC50s using the tight-binding model[41],[42]. The cooperativity factor (α) was calculated as the ratio of Ki (Binary)/ Ki (Ternary), with α > 1 indicating positive cooperativity between NSD2 PWWP1 and FBXO22 FIST based on its disruption of NSD2 binding to UNC7096.

[2] = molecular target: T2, NSD2 (long and short forms) (Homo sapiens, UniProt O96028); test: Western blot of NSD2 in HEK293T cells; type: cell-based; conditions: 10 µM, 6 hrs, vs DMSO
T2 sequence (O96028 211-350 limits assumed): T1 sequence (O96028 211-350)
Experimental: HEK293T and U2OS were obtained from ATCC and cultured in high-glucose-containing Dulbecco’s Modified Eagle’s Medium (DMEM; Gibco; cat. #11995) supplemented with 10% fetal bovine serum (VWR) and 1% penicillin/streptomycin (Gibco). Cells were treated with either UNC10415667, UNC12149, UNC12567, hemin (Sigma; cat. #H9039), or DMSO control for the indicated times and analyzed by western blot using standard procedures. Briefly, cells were lysed on ice for 15 min in NETN lysis buffer (20 mM Tris pH 8.0, 100 mM NaCl, 0.5 mM EDTA, 0.5% NP40) supplemented with 10 µg/mL aprotinin, 10 µg/mL leupeptin, 10 µg/mL pepstatin A, 1 mM sodium orthovanadate, 1 mM sodium fluoride, and 1 mM AEBSF (4-[two aminoethyl] benzenesulfonyl fluoride). Cell lysates were centrifuged at 20,000×g in a benchtop microcentrifuge at 4 °C for 10 min. Protein concentration was determined by Bradford assay (Bio-Rad; cat. #5000006). Protein concentration was normalized using Laemmli buffer. Samples were heated for 5 min at 95°C in a dry water-bath. Samples were separated on TGX stain free gels (Bio-Rad) transferred to nitrocellulose membrane and blocked in 5% non-fat dry milk (Biorad; cat. #1706404) diluted in 1x TBS-T (137 mM NaCl, 2.7 mM KCl, 25 mM Tris pH 7.6, 1% Tween-20). Primary antibody incubations (Anti-NSD2 (Abcam; Cat# ab75359; Lot# 1093214-1; 1:1000 dilution), Anti-BACH1 (Fortis Life Sciences; Cat# A303-805A; Lot# 1; 1:1000 dilution), and Anti-GAPDH (Santa Cruz Biotechnology; Cat# sc-47724; Lot# C1023; 1:1000 dilution)) were performed overnight at 4 °C. Secondary antibodies (Peroxidase AffiniPure Goat Anti-Rabbit IgG (H + L) (Jackson Immuno; Cat# 111-035-003; 1:5000 dilution) and Peroxidase AffiniPure Goat Anti-Mouse IgG (H + L) (Jackson Immuno; Cat# 115-035-003; 1:5000 dilution)) were incubated for 1 h at room temperature. Blots were developed by chemiluminescence using Pierce ECL (Thermo Fisher Scientific; cat. #32106).

[3] = test system: U2OS cells; test: CellTiter-Glo cell viability assay; type: cell-based, human; conditions: 1 µM, 6 h
Experimental: The cell viability of NSD2 HiBiT U2OS P112 and parental U2OS cell lines treated with NSD2 degrader was determined by the CellTiter-Glo 2.0 Cell Viability Assay (Promega, G9242). 384-well plates (Corning) with cells and the reagent were equilibrated to the room temperature before detection. The reagent was added to the assay plate according to the product instruction and allowed to incubate on an orbital shaker for 3 min at room temperature before subjecting the plate to the GloMax luminometer (Promega). The data and graphs were then analyzed and generated using GraphPad Prism (v 10.4.1)

[4] = compound alone (buffer, no FBXO22 FIST), tracer UNC7096, read-out: IC50, competitive TR-FRET, binding to NSD2 PWWP1

| Structure (SMILES) | IC50 ([1]; FBXO22 FIST C326A variant present, read-out: IC50, competitive TR-FRET, in the presence of C326A FIST) [µM] | IC50 ([1]; FBXO22 FIST present, reagents not preincubated, read-out: IC50, competitive TR-FRET, in the presence of FBXO22 FIST without preincubation) [µM] | IC50 ([1]; WT FBXO22 FIST present, compound pre-incubated with FIST 30 min, read-out: IC50, competitive TR-FRET, in the presence of FBXO22 FIST) [µM] | IC50 [1, 4] [µM] | NSD2 levels by immunoblot [2] | cell viability [3] |
| --- | --- | --- | --- | --- | --- | --- |
| O=C1COc2cc(C(=O)N(Cc3ccc(C(=O)Nc4ccc5c(c4)CCN(C(=O)CCCCC(O)S(=O)(=O)O)C5)cc3)C3CC3)ccc2N1 (centres unmarked) [UNC10088] | 0.227 ± 0.01 | 0.108 | 0.101 ± 0.008 | 0.248 ± 0.022 | degradation of NSD2 | – |
| O=Cc1ccc(C(=O)N2CCc3cc(NC(=O)c4ccc(CN(C(=O)c5ccc6c(c5)OCC(=O)N6)C5CC5)cc4)ccc3C2)cc1 [UNC10415667] | – | – | – | 0.159 ± 0.024 | completely degraded | did not impact cell viability |
